Assay results taken from patent US20070172469A1, “Methods For Inhibiting Viral Replication In Vivo” (priority 2002, published 2007).
Where two headings read alike, the source gives them in different places.

Assays:
[1] = system: AVA5 cells; test: Actin mRNA level in AVA5 cells (nonspecific inhibitory activity); type: cell-based, human; conditions: 3 days, ADI-PEG20 0.01 IU/ml, alpha interferon 10 IU/ml, ribavirin 100 μM
[2] = system: HCV; test: In vitro HCV RNA replication assay in AVA5 cells (dot blot); type: cell-based, Hepatitis C virus (HCV); conditions: for IC50 / IC90: HCV mRNA levels
[3] = Toxicity in AVA5 cells, neutral red dye uptake; conditions: human, AVA5 cells (HCV RNA replicating cell line derived from Huh7)
[4] = cited from earlier work
[5] = system: HCV; conditions: cited from earlier work
[6] = humans chronically infected with HCV

Compound	mRNA % inhibition of actin [1]	IC50 ([2]; Hepatitis C virus, 72 h, AVA5 cells, 3 days, read-out: IC50)	IC90 ([2]; Hepatitis C virus, 72 h, AVA5 cells, 3 days, read-out: IC90)	inhibition at 100 µM ([2]; Hepatitis C virus, Ava5, 72 h)	CC50 at 3 days [3]	patients with influenza-like illness with fever, chills, myalgias and malaise ([4]; PEG and non PEG formulated versions)	patients with neuropsychiatric complications ([4]; depression, irritability, anxiety)	alopecia ([4]; human, in vivo)	bone marrow suppression with granulocytopenia, anemia or thrombocytopenia ([4]; human, in vivo)	patients in whom effective [5, 6]	treatment required to achieve a 50% reduction in HCV titers [5, 6]	patients who initially responded to the therapy ([5]; various clinical trials)	responders who relapsed after the treatment ended ([5]; various clinical trials)	% inhibition of HCV ([2]; AVA5 cells, 3 days, ADI-PEG20 0.01 IU/ml, alpha interferon 10 IU/ml, ribavirin 100 μM)	IC50 ([2]; AVA5 cells, 3 days)	IC90 ([2]; AVA5 cells, 3 days)	SI ([2]; selectivity index CC50/EC50, AVA5 cells)
NC(=O)c1ncn([C@@H]2O[C@H](CO)[C@@H](O)[C@H]2O)n1 [ribavirin, 1-β-D-ribo-furanosyl-1,2,4-trizole-3-carboxamide]	98%	> 10 µM	> 10 µM	25%	74 µM												
alpha interferon	11%					up to 82%	~20%	~5%	~5%	~50%	3-6 months	approximately 40%	70%	92%	2.1 IU/ml	9.0 IU/ml	>4762
